Laboratory results from US20240228504A1, “SUBSTITUTED TRICYCLIC AMIDES, ANALOGUES THEREOF, AND METHODS USING SAME” (Arbutus Biopharma Corporation, priority 2020, published 2024).
pEC50: −log10 of the molar value.

System: HBV rcDNA in HepDE19 cells
Assay: HepDE19 assay with bDNA quantitation of HBV rcDNA
Format: cell-based, hepatitis B virus
Conditions: Hepatitis B virus, HepDE19, HepDE19 assay, inhibition of rcDNA formation, bDNA quantitation; read-out: DE-19bDNA EC50

Q: With `CN(C(=O)c1ccc2nccnc2c1)[C@@H]1COCc2[nH]c(=O)c3cc(F)c(F)cc3c21` [Compound 72, (S)-N-(8,9-Difluoro-6-oxo-1,4,5,6-tetrahydro-2H-pyrano[3,4-c]isoquinolin-1-yl)-N-methylquinoxaline-6-carboxamide] as the compound, how does the pEC50 read?
A: Its pEC50 is 5.42.

Q: With `CN(C(=O)c1ccc(C(F)(F)F)nc1)[C@@H]1COCc2[nH]c(=O)c3cc(F)c(F)cc3c21` [Compound 73, (S)-N-(8,9-Difluoro-6-oxo-1,4,5,6-tetrahydro-2H-pyrano[3,4-c]isoquinolin-1-yl)-N-methyl-6-(trifluoromethyl)nicotinamide] as the compound, how does the pEC50 read?
A: Its pEC50 is 6.92.

Q: With `CN(C(=O)c1ccc(C(F)(F)F)c(F)c1)[C@@H]1COCc2[nH]c(=O)c3cc(F)c(F)cc3c21` [Compound 74, (S)-N-(8,9-Difluoro-6-oxo-1,4,5,6-tetrahydro-2H-pyrano[3,4-c]isoquinolin-1-yl)-3-fluoro-N-methyl-4-(trifluoromethyl)benzamide] as the compound, how does the pEC50 read?
A: The pEC50 was 8.00.

Q: With `CN(C(=O)c1ccc(Cl)c(F)c1)[C@@H]1COCc2[nH]c(=O)c3cc(F)c(F)cc3c21` [Compound 75, (S)-4-Chloro-N-(8,9-difluoro-6-oxo-1,4,5,6-tetrahydro-2H-pyrano[3,4-c]isoquinolin-1-yl)-3-fluoro-N-methylbenzamide] as the compound, how does the pEC50 read?
A: Its pEC50 is 7.70.

Q: `CN(C(=O)c1cc(F)c(F)c(F)c1)[C@@H]1COCc2[nH]c(=O)c3cc(F)c(F)cc3c21` [Compound 76, (S)-N-(8,9-Difluoro-6-oxo-1,4,5,6-tetrahydro-2H-pyrano[3,4-c]isoquinolin-1-yl)-3,4,5-trifluoro-N-methylbenzamide] was tested. Which pEC50 did it give?
A: Its pEC50 is 7.05.

Q: With `CN(C(=O)c1cncc(F)c1)[C@@H]1COCc2[nH]c(=O)c3cc(F)c(F)cc3c21` [Compound 83, (S)-N-(8,9-Difluoro-6-oxo-1,4,5,6-tetrahydro-2H-pyrano[3,4-c]isoquinolin-1-yl)-5-fluoro-N-methylnicotinamide] as the compound, how does the pEC50 read?
A: Its pEC50 is 5.15.

Q: With `CN(C(=O)c1cncc(Cl)c1)[C@@H]1COCc2[nH]c(=O)c3cc(F)c(F)cc3c21` [Compound 84, (S)-5-Chloro-N-(8,9-difluoro-6-oxo-1,4,5,6-tetrahydro-2H-pyrano[3,4-c]isoquinolin-1-yl)-N-methylnicotinamide] as the compound, how does the pEC50 read?
A: Its pEC50 is 5.24.

Q: With `CN(C(=O)c1ccnc(F)c1)[C@@H]1COCc2[nH]c(=O)c3cc(F)c(F)cc3c21` [Compound 85, (S)-N-(8,9-Difluoro-6-oxo-1,4,5,6-tetrahydro-2H-pyrano[3,4-c]isoquinolin-1-yl)-2-fluoro-N-methylisonicotinamide] as the compound, how does the pEC50 read?
A: Its pEC50 is 6.20.

Q: `CN(C(=O)c1cccc(C(F)F)c1)[C@@H]1COCc2[nH]c(=O)c3cc(F)c(F)cc3c21` [Compound 86, (S)-N-(8,9-Difluoro-6-oxo-1,4,5,6-tetrahydro-2H-pyrano[3,4-c]isoquinolin-1-yl)-3-(difluoromethyl)-N-methylbenzamide] was tested. Which pEC50 did it give?
A: Its pEC50 is 7.52.

Q: With `CN(C(=O)[C@@H](O)Cc1ccccc1)[C@@H]1COCc2[nH]c(=O)c3cc(F)c(F)cc3c21` [Compound 87, (S)-N-((S)-8,9-Difluoro-6-oxo-1,4,5,6-tetrahydro-2H-pyrano[3,4-c]isoquinolin-1-yl)-2-hydroxy-N-methyl-3-phenylpropanamide] as the compound, how does the pEC50 read?
A: Its pEC50 is 5.49.

Q: How did the pEC50 turn out when `CN(C(=O)[C@H](O)Cc1ccccc1)[C@@H]1COCc2[nH]c(=O)c3cc(F)c(F)cc3c21` [Compound 88, (R)-N-((S)-8,9-Difluoro-6-oxo-1,4,5,6-tetrahydro-2H-pyrano[3,4-c]isoquinolin-1-yl)-2-hydroxy-N-methyl-3-phenylpropanamide] was run?
A: The pEC50 was 6.32.

Q: With `CN(C(=O)c1ccccc1)[C@@H]1COCc2[nH]c(=O)c3cc(F)c(F)cc3c21` [Compound 91, (S)-N-(8,9-Difluoro-6-oxo-1,4,5,6-tetrahydro-2H-pyrano[3,4-c]isoquinolin-1-yl)-N-methylbenzamide] as the compound, how does the pEC50 read?
A: Its pEC50 is 6.00.

Q: With `CN(C(=O)c1ccc(F)c(F)c1)[C@@H]1COCc2[nH]c(=O)c3cc(F)c(F)cc3c21` [Compound 92, (S)-N-(8,9-Difluoro-6-oxo-1,4,5,6-tetrahydro-2H-pyrano[3,4-c]isoquinolin-1-yl)-3,4-difluoro-N-methylbenzamide] as the compound, how does the pEC50 read?
A: The pEC50 was 6.55.

Q: `CN(C(=O)[C@@](C)(O)c1ccccc1)[C@@H]1COCc2[nH]c(=O)c3cc(F)c(F)cc3c21` [Compound 93, (S)-N-((S)-8,9-Difluoro-6-oxo-1,4,5,6-tetrahydro-2H-pyrano[3,4-c]isoquinolin-1-yl)-2-hydroxy-N-methyl-2-phenylpropanamide] was tested. Which pEC50 did it give?
A: The pEC50 was 4.92.

Q: How did the pEC50 turn out when `CN(C(=O)[C@](C)(O)c1ccccc1)[C@@H]1COCc2[nH]c(=O)c3cc(F)c(F)cc3c21` [Compound 94, (R)-N-((S)-8,9-Difluoro-6-oxo-1,4,5,6-tetrahydro-2H-pyrano[3,4-c]isoquinolin-1-yl)-2-hydroxy-N-methyl-2-phenylpropanamide] was run?
A: Its pEC50 is 5.49.

Q: `CN(C(=O)[C@@H](O)c1ccccc1)[C@@H]1COCc2[nH]c(=O)c3cc(F)c(F)cc3c21` [Compound 95, (S)-N-((S)-8,9-Difluoro-6-oxo-1,4,5,6-tetrahydro-2H-pyrano[3,4-c]isoquinolin-1-yl)-2-hydroxy-N-methyl-2-phenylacetamide] was tested. Which pEC50 did it give?
A: Its pEC50 is 4.62.

Q: With `CN(C(=O)[C@H](O)c1ccccc1)[C@@H]1COCc2[nH]c(=O)c3cc(F)c(F)cc3c21` [Compound 96, (R)-N-((S)-8,9-Difluoro-6-oxo-1,4,5,6-tetrahydro-2H-pyrano[3,4-c]isoquinolin-1-yl)-2-hydroxy-N-methyl-2-phenylacetamide] as the compound, how does the pEC50 read?
A: The pEC50 was 5.00.

Q: With `CN(C(=O)c1cc2c(F)c(F)c(F)cc2[nH]1)[C@@H]1COCc2[nH]c(=O)c3cc(F)c(F)cc3c21` [Compound 97, (S)-N-(8,9-Difluoro-6-oxo-1,4,5,6-tetrahydro-2H-pyrano[3,4-c]isoquinolin-1-yl)-4,5,6-trifluoro-N-methyl-1H-indole-2-carboxamide] as the compound, how does the pEC50 read?
A: Its pEC50 is 8.00.

Q: With `CN(C(=O)c1ccc(C(F)(F)F)cc1)[C@@H]1COCc2[nH]c(=O)c3cc(F)c(F)cc3c21` [Compound 98, (S)-N-(8,9-Difluoro-6-oxo-1,4,5,6-tetrahydro-2H-pyrano[3,4-c]isoquinolin-1-yl)-N-methyl-4-(trifluoromethyl)benzamide] as the compound, how does the pEC50 read?
A: The pEC50 was 8.00.

Q: How did the pEC50 turn out when `CN(C(=O)c1ccc(C#N)c(F)c1)[C@@H]1COCc2[nH]c(=O)c3cc(F)c(F)cc3c21` [Compound 100, (S)-4-Cyano-N-(8,9-difluoro-6-oxo-1,4,5,6-tetrahydro-2H-pyrano[3,4-c]isoquinolin-1-yl)-3-fluoro-N-methylbenzamide] was run?
A: Its pEC50 is 7.40.

Q: `CN(C(=O)c1ccc(F)c(C(F)F)c1)[C@@H]1COCc2[nH]c(=O)c3cc(F)c(F)cc3c21` [Compound 109, (S)-N-(8,9-Difluoro-6-oxo-1,4,5,6-tetrahydro-2H-pyrano[3,4-c]isoquinolin-1-yl)-3-(difluoromethyl)-4-fluoro-N-methylbenzamide] was tested. Which pEC50 did it give?
A: Its pEC50 is 7.70.

Q: How did the pEC50 turn out when `CN(C(=O)c1ccc(C(F)F)c(F)c1)[C@@H]1COCc2[nH]c(=O)c3cc(F)c(F)cc3c21` [Compound 110, (S)-N-(8,9-Difluoro-6-oxo-1,4,5,6-tetrahydro-2H-pyrano[3,4-c]isoquinolin-1-yl)-4-(difluoromethyl)-3-fluoro-N-methylbenzamide] was run?
A: The pEC50 was 8.00.

Q: With `CN(C(=O)c1ccc(C(F)F)cc1)[C@@H]1COCc2[nH]c(=O)c3cc(F)c(F)cc3c21` [Compound 111, (S)-N-(8,9-Difluoro-6-oxo-1,4,5,6-tetrahydro-2H-pyrano[3,4-c]isoquinolin-1-yl)-4-(difluoromethyl)-N-methylbenzamide] as the compound, how does the pEC50 read?
A: Its pEC50 is 7.70.

Q: How did the pEC50 turn out when `CN(C(=O)c1ccc(F)c(Cl)c1)[C@@H]1COCc2[nH]c(=O)c3cc(F)c(F)cc3c21` [Compound 112, (S)-3-Chloro-N-(8,9-difluoro-6-oxo-1,4,5,6-tetrahydro-2H-pyrano[3,4-c]isoquinolin-1-yl)-4-fluoro-N-methylbenzamide] was run?
A: The pEC50 was 7.40.

Q: How did the pEC50 turn out when `CN(C(=O)c1nc2ccccc2s1)[C@@H]1COCc2[nH]c(=O)c3cc(F)c(F)cc3c21` [Compound 123, (S)-N-(8,9-Difluoro-6-oxo-1,4,5,6-tetrahydro-2H-pyrano[3,4-c]isoquinolin-1-yl)-N-methylbenzo[d]thiazole-2-carboxamide] was run?
A: Its pEC50 is 5.82.

Q: `CN(C(=O)c1nc2ccccc2o1)[C@@H]1COCc2[nH]c(=O)c3cc(F)c(F)cc3c21` [Compound 124, (S)-N-(8,9-Difluoro-6-oxo-1,4,5,6-tetrahydro-2H-pyrano[3,4-c]isoquinolin-1-yl)-N-methylbenzo[d]oxazole-2-carboxamide] was tested. Which pEC50 did it give?
A: Its pEC50 is 5.96.

Q: `CN(C(=O)c1cc(C(F)(F)F)n[nH]1)[C@@H]1COCc2[nH]c(=O)c3cc(F)c(F)cc3c21` [Compound 125, (S)-N-(8,9-Difluoro-6-oxo-1,4,5,6-tetrahydro-2H-pyrano[3,4-c]isoquinolin-1-yl)-N-methyl-3-(trifluoromethyl)-1H-pyrazole-5-carboxamide] was tested. Which pEC50 did it give?
A: Its pEC50 is 6.82.

Q: With `CN(C(=O)c1cc(-c2ccc(F)cc2)n[nH]1)[C@@H]1COCc2[nH]c(=O)c3cc(F)c(F)cc3c21` [Compound 126, (S)-N-(8,9-Difluoro-6-oxo-1,4,5,6-tetrahydro-2H-pyrano[3,4-c]isoquinolin-1-yl)-3-(4-fluorophenyl)-N-methyl-1H-pyrazole-5-carboxamide] as the compound, how does the pEC50 read?
A: Its pEC50 is 4.68.

Q: `CN(C(=O)c1cccc(F)c1)[C@@H]1COCc2[nH]c(=O)c3cc(F)c(F)cc3c21` [Compound 127, (S)-N-(8,9-Difluoro-6-oxo-1,4,5,6-tetrahydro-2H-pyrano[3,4-c]isoquinolin-1-yl)-3-fluoro-N-methylbenzamide] was tested. Which pEC50 did it give?
A: The pEC50 was 6.42.

Q: `CN(C(=O)c1cccc(Cl)c1)[C@@H]1COCc2[nH]c(=O)c3cc(F)c(F)cc3c21` [Compound 128, (S)-3-Chloro-N-(8,9-difluoro-6-oxo-1,4,5,6-tetrahydro-2H-pyrano[3,4-c]isoquinolin-1-yl)-N-methylbenzamide] was tested. Which pEC50 did it give?
A: Its pEC50 is 7.05.

Same assay, conditions: Hepatitis B virus, HepDE19, read-out: DE-19bDNA EC50 (μM)

Q: `CN(C(=O)c1ccc(Cl)cc1)[C@@H]1COCc2[nH]c(=O)c3cc(F)c(F)cc3c21` [Compound 99, (S)-4-Chloro-N-(8,9-difluoro-6-oxo-1,4,5,6-tetrahydro-2H-pyrano[3,4-c]isoquinolin-1-yl)-N-methylbenzamide] was tested. Which EC50 did it give?
A: The EC50 was 0.02 µM.
